Measurements: EP2329817A1, “Retinoic acid receptor antagonists, miR-10a inhibitors and inhibitors of HOXB1 or HOXB3 repressors for treating pancreatic cancer” (Ernst-Moritz-Arndt-Universität Greifswald, priority 2009, dated 2011)

Experiments:
PaTu-T cells = assay: In vitro migration assay (scratch assay); type: cell-based, human; conditions: compared to DMSO control
Protocol: We used the selective RARα antagonist Ro-41-5253; to analyze its anti-migratory activity in an in vitro migration assay ("scratch assay") and in the zebrafish xenotransplantation model, respectively. […] Similar results were obtained when PaTu-T cells were treated with RAR -specific siRNAs (Supplemental Table 1 and Supplemental Fig. 1).
(§1) PaTu-T cells were incubated as indicated, with DMSO (Co), 200 nM Ro-41-5253 (RARα inh), control-Morpholino, miR-10a Morpholino, miR-196 siRNA (Co), or RARα siRNA and PaTu-S cells were co-incubated with 1 µM retinoic acid (RA) and control siRNA, RARα siRNA or Ro-415253 and miR-10a expression was evaluated by Northern blot analysis (A). […] RT-PCR control of GAPDH was used as a loading control (not shown). Dose response curves for RA and the RARα antagonist and the RT-PCR control for RARα siRNA treatment are shown in Supplemental Fig. 1. The effect of Ro-415253 on cell migration was analysed in an in vitro migration assay in PaTu-T cells. […] An actin re-blot confirmed equal loading.

miR-10a = assay: Northern blot of miR-10a expression in PaTu-T cells (densitometry); type: cell-based, human; conditions: for miR-10a expression: result in words
Protocol: Northern Blot analysis was performed essentially according to Kloosterman et al. ^16 using a miR-10 LNA probe ([…]) (Exiqon, Denmark). We had previously described protocols for RT-PCR^17 and RT-qPCR^18 . Primers for the RT-PCR were: HOXB1: sc-38686 and HOXB3: sc-38690-PR and RARα: sc-29465-PR all from Santa Cruz Biotechnology. For quantitative RT-PCR we used 100 ng of total RNA and the Roche Master SYBR Green kit. Single-band amplification was verified by melting curve dissociation protocols. A standard curve for β-actin using 1, 5, 10, 100, and 500 ng of total RNA was used for normalization. RT-qPCR primers for HOXB1 were: forward 5'-[…]-3' and reverse 5'-[…]-3' and for HOXB3: forward 5'-[…]-3' and reverse 5'-[…]-3'.
as §1
PaTu-T cells were incubated for 24h with indicated concentrations of Ro-415253 and miR-10a expression was evaluated by northern blot analysis (upper panel). GAPDH loading control is shown in the lower panel. […] Patu-S cells were incubated tor 24h with indicated concentrations of ATRA and miR-10a expression was evaluated by northern blot analysis (upper panel). GAPDH loading control is shown in the lower panel. (C) Specific "knockdown" of RARα in PaTu-Tcells by RARα siRNA. RT-PCR from total RNA of RARα or control siRNA (Co) treated PaTu-T cells (24h) confirms specific knockdown of RARa. RT-PCR of GAPDH control is shown in the lower panel.

CCCCCCCOc1cc2c(cc1/C(C)=C/c1ccc(C(=O)O)cc1)C(C)(C)CCS2(=O)=O [Ro-41-5253, Benzoic acid, 4-(2-(7-(heptyloxy)-3,4-dihydro-4,4-dimethyl-2H-1-benzothiopyran-6-yl)-1-propenyl)-, S,S-dioxide, (E)]
cell migration (PaTu-T cells): significant inhibition | cell migration (PaTu-T cells; listed as RARα antagonist): significantly decreased | reduction of miR-10a expression (miR-10a; densitometric analysis, Ro-41-5253 at 200 nM): 9.4 fold | miR-10a expression (miR-10a): significant decrease | miR-10a expression (miR-10a; listed as Ro-415253): Dose dependent repression
